Results as given in ChEMBL document CHEMBL3232739, “Discovery of a potent and dissociated non-steroidal glucocorticoid receptor agonist containing an alkyl carbinol pharmacophore” (Bioorg Med Chem Lett, 2014).
Converted amounts (≈) assume the structure as drawn.

Legend:
[1] = Oral bioavailability in Sprague-Dawley rat at 30 mg/kg; type: ADME, organism-based; conditions: in vivo
[2] = Efflux ratio of permeability from basolateral to apical side over apical to basolateral side in human Caco2 cells; type: ADME, cell-based; conditions: Caco-2
[3] = test system: Mus musculus; experiment: Toxicity in B10.RIII mouse assessed as body fate level in serum at 30 mg/kg, po qd for 5 weeks relative to control; type: organism-based; design: dose 30 mg/kg, route oral; conditions: in vivo, 840 h
[4] = test system: Mus musculus; experiment: Toxicity in B10.RIII mouse assessed as free fatty acid level in serum at 100 mg/kg, po qd for 5 weeks relative to control; type: organism-based; design: dose 100 mg/kg, route oral; conditions: in vivo, 840 h
[5] = test system: Mus musculus; experiment: Toxicity in B10.RIII mouse assessed as body fate level in serum at 100 mg/kg, po qd for 5 weeks relative to control; type: organism-based; design: dose 100 mg/kg, route oral; conditions: in vivo, 840 h
[6] = Equilibrium solubility of the compound at pH 7.4; type: physicochemical; conditions: buffer
[7] = test system: Mus musculus; experiment: Antiarthritic activity in B10.RIII mouse collagen/complete Freund's adjuvant-induced arthritis model assessed as reduction of disease score at 30 mg/kg, po qd for 5 weeks relative to control; type: functional; design: scale not given: the % may be the effect or the level left
[8] = test system: Mus musculus; experiment: Toxicity in B10.RIII mouse assessed as insulin level in serum at 100 mg/kg, po qd for 5 weeks relative to control; type: organism-based; design: dose 100 mg/kg, route oral; conditions: in vivo, 840 h
[9] = target: T1, Glucocorticoid receptor (Homo sapiens, UniProt P04150)
T1 sequence (P04150 whole entry): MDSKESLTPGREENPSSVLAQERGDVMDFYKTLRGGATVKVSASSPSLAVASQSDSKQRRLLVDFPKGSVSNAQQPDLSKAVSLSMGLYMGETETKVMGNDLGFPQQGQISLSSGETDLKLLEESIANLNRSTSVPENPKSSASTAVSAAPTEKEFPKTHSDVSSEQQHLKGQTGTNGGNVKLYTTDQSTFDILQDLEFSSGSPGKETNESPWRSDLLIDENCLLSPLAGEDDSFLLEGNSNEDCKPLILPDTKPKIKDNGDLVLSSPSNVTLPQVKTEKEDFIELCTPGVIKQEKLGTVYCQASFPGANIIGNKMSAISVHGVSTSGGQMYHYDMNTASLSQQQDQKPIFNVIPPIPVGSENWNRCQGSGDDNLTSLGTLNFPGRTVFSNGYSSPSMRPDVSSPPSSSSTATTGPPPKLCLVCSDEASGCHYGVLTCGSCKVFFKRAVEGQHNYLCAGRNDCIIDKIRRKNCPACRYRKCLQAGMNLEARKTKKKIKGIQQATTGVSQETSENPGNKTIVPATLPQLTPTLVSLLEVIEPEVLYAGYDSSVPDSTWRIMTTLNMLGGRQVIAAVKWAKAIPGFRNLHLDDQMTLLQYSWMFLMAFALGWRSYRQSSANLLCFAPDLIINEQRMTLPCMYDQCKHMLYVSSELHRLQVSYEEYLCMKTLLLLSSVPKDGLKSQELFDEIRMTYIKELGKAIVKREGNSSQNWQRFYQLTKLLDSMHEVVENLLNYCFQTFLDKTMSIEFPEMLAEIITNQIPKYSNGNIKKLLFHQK
Description: Agonist activity at glucocorticoid receptor in human foreskin fibroblasts assessed as inhibition of IL-1-induced IL-6 production by trans-repression assay

[10] = test system: Mus musculus; experiment: Toxicity in B10.RIII mouse assessed as triglyceride level in serum at 30 mg/kg, po qd for 5 weeks relative to control; type: organism-based; design: dose 30 mg/kg, route oral; conditions: in vivo, 840 h
[11] = species on record: Homo sapiens; experiment: Selectivity ratio of IC50 for progesterone receptor (unknown origin) to IC50 for glucocorticoid receptor (unknown origin)
[12] = target: T1, Glucocorticoid receptor; remark: listed apart in the source
[13] = Volume of distribution at steady state in Sprague-Dawley rat at 2 mg/kg, iv; type: ADME, organism-based; design: dose 2 mg/kg, route intravenous; conditions: in vivo, read-out: Vdss
[14] = test system: Mus musculus; experiment: Antiarthritic activity in B10.RIII mouse collagen/complete Freund's adjuvant-induced arthritis model assessed as reduction of disease score at 100 mg/kg, po qd for 5 weeks relative to control; type: functional; design: scale not given: the % may be the effect or the level left
[15] = Mean residence time in Sprague-Dawley rat at 2 mg/kg, iv; type: ADME, organism-based; design: dose 2 mg/kg, route intravenous; conditions: in vivo
[16] = test system: Mus musculus; experiment: Antiinflammatory activity in mouse assessed as inhibition of LPS-induced TNFalpha production at 1 mg/kg, po; type: functional
[17] = Equilibrium solubility of the compound at pH 2.2; type: physicochemical; conditions: buffer
[18] = test system: Mus musculus; experiment: Toxicity in B10.RIII mouse assessed as insulin level in serum at 30 mg/kg, po qd for 5 weeks relative to control; type: organism-based; design: dose 30 mg/kg, route oral; conditions: in vivo, 840 h
[19] = test system: Mus musculus; experiment: Toxicity in B10.RIII mouse assessed as triglyceride level in serum at 100 mg/kg, po qd for 5 weeks relative to control; type: organism-based; design: dose 100 mg/kg, route oral; conditions: in vivo, 840 h
[20] = test system: Mus musculus; experiment: Antiinflammatory activity in po dosed mouse assessed as inhibition of LPS-induced TNFalpha production; type: functional
[21] = target: T1, Glucocorticoid receptor; remark: listed apart in the source
Description: Transactivation of glucocorticoid receptor in human HeLa cells harboring MMTV promoter by luciferase reporter gene assay

[22] = test system: Mus musculus; experiment: Antiarthritic activity in po dosed B10.RIII mouse collagen/complete Freund's adjuvant-induced arthritis model assessed as reduction of disease score administered po qd for 5 weeks relative to control; type: functional; conditions: 840 h
[23] = Cmax in Sprague-Dawley rat at 30 mg/kg, po; type: ADME, organism-based; design: dose 30 mg/kg, route oral; conditions: in vivo
[24] = test system: Mus musculus; experiment: Toxicity in po dosed B10.RIII mouse assessed as insulin level in serum administered po qd for 5 weeks relative to control; type: organism-based; conditions: in vivo, 840 h
[25] = test system: Mus musculus; experiment: Toxicity in B10.RIII mouse assessed as free fatty acid level in serum at 30 mg/kg, po qd for 5 weeks relative to control; type: organism-based; design: dose 30 mg/kg, route oral; conditions: in vivo, 840 h
[26] = target: T1, Glucocorticoid receptor; experiment: Transactivation of glucocorticoid receptor in human HeLa cells harboring MMTV promoter at 2 uM by luciferase reporter gene assay relative to dexamethasone; type: cell-based; conditions: read-out: Efficacy

## Cc1ccc(F)cc1C(C)(C)C[C@@](O)(Cc1cc2cnccc2[nH]1)C(C)(C)C
[1]
  bioavailability: 64%
[2]
  efflux ratio: 1.3
[3]
  Activity: -7%
[4]
  Activity: -27%
[5]
  Activity: -3%
[6]
  solubility thermodynamic: 15 µg/mL (≈ 39.2 µM)
[7]
  Activity: -51%
[8]
  Activity: 224%
[9]
  IC50: 27 nM
[10]
  Activity: 29%
[11]
  Ratio IC50: > 100
[12]
  IC50: 2 nM
[13]
  Vd: 4 L/kg
[14]
  Activity: -84%
[15]
  MRT: 1.38 h
[16]
  inhibition in vivo at 1 mg/kg: 82%
[17]
  solubility thermodynamic: 840 µg/mL (≈ 2200 µM)
[18]
  Activity: 60%
[19]
  Activity: 113%
[20]
  ED50: < 1 mg/kg
[21]
  IC50: > 2000 nM
[22]
  ED50: 30 mg/kg
[23]
  Cmax: 708 ng/mL
[24]
  Activity: Dose-dependent effect
[25]
  Activity: 25%
[26]
  Emax at 2 µM: 1%
